Test results published in publication PMC6325200, “Effects of Microplate Type and Broth Additives on Microdilution MIC Susceptibility Assays” (Antimicrobial Agents and Chemotherapy, 2018).
Read-outs that look alike come from different tables or passages of the source.

Legend:
MRSA ATCC 43300 = tested on: MRSA ATCC 43300
Method: (§1) A positive control of a row of just the bacteria and a negative control of only the medium were included for every plate tested.
(§2) The compounds along with standard antibiotics were serially diluted 2-fold across the 96-well plates. […] A sample of each culture was then diluted 40-fold in fresh MH broth (in presence and absence of Tween) and incubated at 37°C for 2 to 3 h.
For experiments in the presence of surfactant, 2% beractant (25 mg/ml) was added to the mid-log-phase cultures and mixed gently and added to all the 96-well plates. For experiments in the presence of serum, a mixture of 50% of human serum along with 50% MHB was prepared and used throughout the experiment.

[1] = literature values, reference given; cited from earlier work
Excerpt: Other assay additives can affect MIC values. […] Plasma protein binding has been implicated as a major factor limiting the active free concentration of many clinically important antibiotics ([37][–][42]).

S. pyogenes ATCC 12344 = conditions: n = 2
Method: as §1, §2

MRSA = conditions: literature value; cited from earlier work
Excerpt: TABLE 1 Literature MIC values for tested antibiotics | column: MIC (µg/ml) (reference[s]) / MRSA

E. faecalis ATCC 29212 = assay: microbe, parasite or virus in culture; conditions: n = 2
Method: as §1, §2

[2] = tested on: MSSA S. aureus ATCC 25923; assay: microbe, parasite or virus in culture; conditions: n = 2
Method: as §1, §2

[3] = tested on: S. aureus GISA NRS 2; ATCC 700698; assay: microbe, parasite or virus in culture; conditions: n = 2
Method: as §1, §2

[4] = tested on: S. pneumoniae ATCC 700677 (MDR); assay: microbe, parasite or virus in culture; conditions: n = 2
Method: as §1, §2

S. pneumoniae ATCC 33440 = assay: microbe, parasite or virus in culture; conditions: n = 2
Method: as §1, §2

[5] = Corning flat NBS plate, MHB +0.002% T80, no further additive, n = 2
[6] = Corning flat PS plate, MHB −T80, no additive, n = 2

CNC(=O)[C@H](CCCCNC(=O)[C@H]1NC(=O)[C@H]2NC(=O)[C@H](NC(=O)[C@@H]3NC(=O)[C@H](CC(N)=O)NC(=O)[C@H](NC(=O)[C@@H](CC(C)C)NC)[C@H](O)c4ccc(c(Cl)c4)Oc4cc3cc(c4O[C@@H]3O[C@H](CO)[C@@H](O)[C@H](O)[C@H]3O[C@H]3C[C@](C)(N)[C@H](O)[C@H](C)O3)Oc3ccc(cc3Cl)[C@H]2O)c2ccc(O)c(c2)-c2c(O)cc(O)cc21)NC(=O)[C@H](CCCCN)NC(=O)[C@H](CCCCN)NC(=O)[C@H](CCCCNC(=O)c1ccc(Oc2ccccc2)cc1)NC(=O)c1ccc(Oc2ccccc2)cc1 [MCC310]
0.007 µg/mL: MIC (MRSA ATCC 43300; [5])
4 µg/mL: MIC (MRSA ATCC 43300; [6])

CN[C@H](CC(C)C)C(=O)N[C@H]1C(=O)N[C@@H](CC(N)=O)C(=O)N[C@H]2C(=O)N[C@H]3C(=O)N[C@H](C(=O)N[C@H](C(=O)O)c4cc(O)cc(O)c4-c4cc3ccc4O)[C@H](O)c3ccc(c(Cl)c3)Oc3cc2cc(c3O[C@@H]2O[C@H](CO)[C@@H](O)[C@H](O)[C@H]2O[C@H]2C[C@](C)(N)[C@H](O)[C@H](C)O2)Oc2ccc(cc2Cl)[C@H]1O [Vancomycin, vancomycin]
0.125 µg/mL: MIC (S. pyogenes ATCC 12344; Corning PS, MHB +T80) | MIC (S. pyogenes ATCC 12344; Corning PS, MHB -T80) | MIC (S. pyogenes ATCC 12344; Corning TC, MHB -T80)
1 to 2 µg/mL: MIC (E. faecalis ATCC 29212; Corning NBS, MHB -T80) | MIC (E. faecalis ATCC 29212; Corning TC, MHB -T80) | MIC ([2]; Corning NBS, MHB +T80) | MIC ([2]; Corning PS, MHB +T80) | MIC ([4]; Corning NBS, MHB +T80) | MIC (MRSA ATCC 43300; Corning flat PS plate, MHB +0.002% T80, no further additive, n = 2) | MIC (MRSA ATCC 43300; Nunc flat TC plate, MHB −T80, n = 2)
0.125 to 0.25 µg/mL: MIC (S. pyogenes ATCC 12344; Corning NBS, MHB +T80) | MIC (S. pyogenes ATCC 12344; Corning NBS, MHB -T80) | MIC (S. pyogenes ATCC 12344; Corning TC, MHB +T80)
0.03 µg/mL: MIC (MRSA ATCC 43300; Trek PS, MH, 2% LS, n = 2)
0.5 µg/mL: MIC ([3]; Corning NBS, MHB -T80) | MIC ([3]; Corning TC, MHB +T80) | MIC ([4]; Corning NBS, MHB -T80) | MIC (MRSA ATCC 43300; Corning NBS, MH, 2% LS, n = 2) | MIC (MRSA ATCC 43300; Corning PS, MH + T80, 50% HS, n = 2) | MIC (MRSA ATCC 43300; Corning TC, MH + 2% LHB, 50% HS, n = 2) | MIC (MRSA ATCC 43300; Corning TC, MH + 2% LHB, no additive, n = 2) | MIC (MRSA ATCC 43300; Corning TC, MH + T80, 2% LS, n = 2) | MIC (MRSA ATCC 43300; Corning flat NBS plate, MHB −T80, no additive, n = 2) | MIC (MRSA ATCC 43300; [6]) | MIC (MRSA ATCC 43300; Corning flat TC plate, MHB −T80, no additive, n = 2) | MIC (MRSA ATCC 43300; Nunc U TC plate, MHB −T80, n = 2) | MIC (MRSA ATCC 43300; Trek PS, MH + 2% LHB, 50% HS, n = 2)
1 µg/mL: MIC (E. faecalis ATCC 29212; Corning NBS, MHB +T80) | MIC (E. faecalis ATCC 29212; Corning PS, MHB +T80) | MIC (E. faecalis ATCC 29212; Corning PS, MHB -T80) | MIC (E. faecalis ATCC 29212; Corning TC, MHB +T80) | MIC ([2]; Corning TC, MHB +T80) | MIC ([4]; Corning PS, MHB +T80) | MIC ([4]; Corning PS, MHB -T80) | MIC ([4]; Corning TC, MHB -T80) | MIC (S. pneumoniae ATCC 33440; Corning PS, MHB +T80) | MIC (S. pneumoniae ATCC 33440; Corning PS, MHB -T80) | MIC (S. pneumoniae ATCC 33440; Corning TC, MHB +T80) | MIC (MRSA ATCC 43300; Corning NBS, MH + 2% LHB, no additive, n = 2) | MIC (MRSA ATCC 43300; Corning NBS, MH + T80, 50% HS, n = 2) | MIC (MRSA ATCC 43300; Corning PS, MH + 2% LHB, no additive, n = 2) | MIC (MRSA ATCC 43300; [5]) | MIC (MRSA ATCC 43300; Corning flat TC plate, MHB +0.002% T80, no further additive, n = 2) | MIC (MRSA ATCC 43300; Nunc U TC plate, MHB +0.002% T80, n = 2) | MIC (MRSA ATCC 43300; Nunc flat PS plate, MHB +0.002% T80, n = 2) | MIC (MRSA ATCC 43300; Nunc flat PS plate, MHB −T80, n = 2) | MIC (MRSA ATCC 43300; Nunc flat TC plate, MHB +0.002% T80, n = 2) | MIC (MRSA ATCC 43300; Trek flat PS plate, MHB +0.002% T80, no further additive, n = 2)
0.25 µg/mL: MIC (MRSA ATCC 43300; Trek PS, MH + 2% LHB, no additive, n = 2) | MIC (MRSA ATCC 43300; Trek PS, MH, 50% HS, n = 2)
0.06 to 1 µg/mL: MIC (MRSA ATCC 43300; Trek PS, MH + T80, 2% LS, n = 2)
0.5 to 2 µg/mL: MIC (MRSA ATCC 43300; Corning PS, MH + T80, 2% LS, n = 2)
0.25 to 0.5 µg/mL: MIC (MRSA ATCC 43300; Corning NBS, MH + T80, 2% LS, n = 2) | MIC (MRSA ATCC 43300; Corning NBS, MH, 50% HS, n = 2) | MIC (MRSA ATCC 43300; Corning PS, MH, 50% HS, n = 2) | MIC (MRSA ATCC 43300; Corning TC, MH, 50% HS, n = 2) | MIC (MRSA ATCC 43300; Trek PS, MH + 2% LHB, 2% LS, n = 2) | MIC (MRSA ATCC 43300; Trek PS, MH + T80, 50% HS, n = 2)
around 1 µg/ml: MIC (MRSA ATCC 43300; regardless of plate type or addition of T80)
0.5 to 1 µg/mL: MIC ([2]; Corning NBS, MHB -T80) | MIC ([2]; Corning PS, MHB -T80) | MIC ([2]; Corning TC, MHB -T80) | MIC ([3]; Corning NBS, MHB +T80) | MIC ([3]; Corning PS, MHB +T80) | MIC ([3]; Corning PS, MHB -T80) | MIC ([3]; Corning TC, MHB -T80) | MIC ([4]; Corning TC, MHB +T80) | MIC (S. pneumoniae ATCC 33440; Corning NBS, MHB +T80) | MIC (S. pneumoniae ATCC 33440; Corning NBS, MHB -T80) | MIC (S. pneumoniae ATCC 33440; Corning TC, MHB -T80) | MIC (MRSA ATCC 43300; Corning NBS, MH + 2% LHB, 2% LS, n = 2) | MIC (MRSA ATCC 43300; Corning NBS, MH + 2% LHB, 50% HS, n = 2) | MIC (MRSA ATCC 43300; Corning PS, MH + 2% LHB, 2% LS, n = 2) | MIC (MRSA ATCC 43300; Corning PS, MH + 2% LHB, 50% HS, n = 2) | MIC (MRSA ATCC 43300; Corning PS, MH, 2% LS, n = 2) | MIC (MRSA ATCC 43300; Corning TC, MH + 2% LHB, 2% LS, n = 2) | MIC (MRSA ATCC 43300; Corning TC, MH + T80, 50% HS, n = 2) | MIC (MRSA ATCC 43300; Trek flat PS plate, MHB −T80, no additive, n = 2)
55%: protein binding [1]
2 ([62]) µg/ml: MIC (literature) (MRSA)
0.25 to 1 µg/mL: MIC (MRSA ATCC 43300; Corning TC, MH, 2% LS, n = 2)

CC(=O)NC[C@H]1CN(c2ccc(N3CCOCC3)c(F)c2)C(=O)O1 [linezolid]
31%: protein binding [1]

C[C@@H](O)[C@H]1C(=O)N2C(C(=O)O)=C(S[C@@H]3CN[C@H](C(=O)N(C)C)C3)[C@H](C)[C@H]12 [meropenem]
2%: protein binding [1]

daptomycin
92%: protein binding [1]
